{
  "source": "paper PMC11322497",
  "about": "(Frontiers in Pharmacology, 2024)",
  "key": {"[1]": {"assay": "In vitro plasma protein binding in rabbit blood (rapid equilibrium dialysis, LC-MS/MS)", "type": "in vitro ADME", "settings": "nominal 0.2, 2 and 20 μg/mL, read-out: unbound free fraction"}, "[2]": {"assay": "Plasma and liver selvigaltin concentrations after 4 weeks of treatment", "type": "in vivo", "settings": "New Zealand White, rabbit, oral, HFD rabbits, 0.3, 1.0, 5.0 mg/kg, read-out: increased levels in liver tissue vs plasma", "method": "After 1 week (W) of RD, the animals (n = 44) were randomly assigned to the following groups (Table 1B): • Control rabbits continued to receive a RD for 12 weeks and were treated with vehicle for 5 days a week (days 1–5, p.o.) during the last 4 weeks before culling (RD + 4W Veh group); • Rabbits received a HFD for 8 weeks and were culled (HFD 8W group); • Rabbits received a HFD for 12 weeks and were treated with vehicle for 5 days a week (days 1–5, p.o.) during the last 4 weeks before culling (HFD+4W Veh group); • Rabbits received a HFD for 12 weeks and were treated with GB1211 (0.3 mg/kg) for 5 days a week (days 1–5, p.o.) during the last 4 weeks before culling (HFD + 4W 0.3 mg group); • Rabbits received a HFD for 12 weeks and were treated with GB1211 (1.0 mg/kg) for 5 days a week (days 1–5, p.o.) during the last 4 weeks before culling (HFD + 4W 1.0 mg group); • Rabbits received a HFD for 12 weeks and were treated with GB1211 (5.0 mg/kg) for 5 days a week (days 1–5, p.o.) during the last 4 weeks before culling (HFD + 4W 5.0 mg group).\nLiver homogenates were prepared by homogenisation of 200 mg liver tissue/ml water using a Fisherbrand™ Homogenizer 150 (Thermo Fisher Scientific, Waltham, MA). […]"}, "[3]": {"system": "high fat diet (HFD) rabbit model of metabolic-associated steatohepatitis (MASH)", "assay": "HFD rabbit study, acute 5-day treatment: liver histomorphology (Giemsa, Masson's trichrome, PSR, SHG)", "type": "in vivo, New Zealand White rabbits", "settings": "30 mg/kg p.o. 5 days, week 12; for Ballooning score 0 (no ballooning), share of animals / Ballooning score 1 (few ballooned cells), share of animals / Ballooning score 2 (prominent ballooning), share of animals / Fibrosis (Ishak Score) 0, share of animals / Fibrosis (Ishak Score) 1, share of animals / Fibrosis (Ishak Score) 2, share of animals / Fibrosis (Ishak Score) 3, share of animals / Fibrosis (Ishak Score) 4, share of animals / Fibrosis (Ishak Score) 5, share of animals / Inflammation score 0 (no foci), share of animals / Inflammation score 1 (<2 foci), share of animals / Inflammation score 2 (2–4 foci), share of animals / Inflammation score 3 (> 4 foci), share of animals: n = 3", "method": "After 1 week of standard diet, animals (n = 12) were randomly assigned to the following groups (Table 1A): • Control rabbits continued to receive a regular diet (RD) for 12 weeks and were treated for 5 days (days 1–5, p.o.), during the last week before culling, with either vehicle; RD+1W Veh group] or GB1211 (30 mg/kg; RD + 1W 30 mg group); • Rabbits received a high fat diet (HFD) for 12 weeks (RD implemented with 0.5% cholesterol and 2.5% vegetable fat) and were treated for 5 days (days 1–5, p.o.), during the last week before culling, with either vehicle (HFD + 1W Veh group) or GB1211 (30 mg/kg; HFD + 1W 30 mg group).\nLiver specimens were fixed in 10% buffered formalin (Sigma-Aldrich Corp., St. Louis, MO), paraffin embedded and sectioned at a thickness of 5 μm with a microtome. The slides were stained with hematoxylin and eosin (H&E; both Bio-Optica, Milan, Italy), following standard protocols for histological analysis, to evaluate the general morphology and tissue structure, and then analyzed to evaluate inflammation and […] using Giemsa and Masson’s trichrome staining, respectively. Briefly, deparaffinized and rehydrated sections were incubated with Giemsa (Bio-Optica) in distilled water at ratio 1:1 or with Masson’s trichrome (Bio-Optica), following the manufacturer’s instructions, as previously described ([Vignozzi et al., 2014]). To evaluate lipid accumulation, liver specimens were also cryosectioned at a thickness of 8 μm, fixed with 4% paraformaldehyde, treated for 2–5 min with isopropanol and stained with Oil Red O (Bio-Optica) for 20 min, following the manufacturer’s instructions.\nIn liver, collagen content evaluation for fibrosis grade and quantification was conducted by staining using Picrosirius Red Stain kit (Bio-Optica), as per manufacturer’s instructions. Briefly, deparaffinized and rehydrated sections were incubated with the staining solution for 50 min, rinsed with the appropriate reagents and with distilled water, dehydrated through ascending alcohols and xylene, and mounted, as previously described ([Comeglio et al., 2017]).\nBlinded images of unstained sections of liver were acquired using a Genesis®200 imaging system (HistoIndex, Singapore) and analyzed by Second Harmonic Generation (SHG) microscopy to visualize collagen and Two-Photon Excitation Fluorescence (TPEF) microscopy to visualize the other tissue structures as previously described ([Liu et al., 2017]).\nBriefly, deparaffinized tissue sections were imaged by SHG at 780 nm (specific to collagen-1 and -3) simultaneously with TPEF at 780 nm (collected at 550 nm to visualize tissue structure). Both were captured at a ×20 objective and […] resolution. A specialized artificial intelligence analysis program developed by, and proprietary to, HistoIndex were employed to identify and quantify collagen fibres across liver regions with outputs highlighted below and as previously described ([Liu et al., 2017]): • SHG Overall Area (Percentage of total collagen in overall region). • Strings Overall N. (Number of collagen strings in overall region). • Strings Overall Length (Total length of all collagen strings in overall region). • Strings PT Area (Total area of all collagen strings in portal tract region). • Strings PT Length (Total length of all collagen strings in portal tract region). • Strings PS Area (Total area of all collagen strings in peri-sinusoidal region). • Strings PS Length (Total length of all collagen strings in peri-sinusoidal region).\nThe grading system for inflammation enumerated the number of foci in each 200x field assessed, according to [Kleiner et al. (2005)]: 0 = no foci; 1 = <2 foci; 2 = 2–4 foci; 3 => 4 foci. As shown in the contingency table (Table 3), statistically higher scoring grades were recorded in the HFD+1W Veh group, compared to RD+1W Veh and HFD + 1W 30 mg (both p < 0.05). […]"}, "[4]": {"settings": "HFD rabbits, p < 0.001 vs. HFD + 1W Veh"}},
  "data": [
    {"smiles": "OC[C@H]1O[C@H](Sc2cncc(Br)c2)[C@H](O)[C@@H](n2cc(-c3cc(F)c(F)c(F)c3)nn2)[C@H]1O", "note": "[selvigaltin]", "values": [
      {"measurement": "fraction unbound", "setting": "[1]", "value": 0.141},
      {"measurement": "Kp at 4 weeks", "setting": "[2]", "value": "50 to 60"},
      {"measurement": "Ballooning score 0 (no ballooning), share of animals", "setting": "[3]; HFD rabbits", "value": 0.0, "unit": "%"},
      {"measurement": "Ballooning score 1 (few ballooned cells), share of animals", "setting": "[3]; HFD rabbits", "value": 66.7, "unit": "%"},
      {"measurement": "Ballooning score 2 (prominent ballooning), share of animals", "setting": "[3]; HFD rabbits", "value": 33.3, "unit": "%"},
      {"measurement": "Fibrosis (Ishak Score) 0, share of animals", "setting": "[3]; HFD rabbits", "value": 0.0, "unit": "%"},
      {"measurement": "Fibrosis (Ishak Score) 1, share of animals", "setting": "[3]; HFD rabbits", "value": 0.0, "unit": "%"},
      {"measurement": "Fibrosis (Ishak Score) 2, share of animals", "setting": "[3]; HFD rabbits", "value": 33.3, "unit": "%"},
      {"measurement": "Fibrosis (Ishak Score) 3, share of animals", "setting": "[3]; HFD rabbits", "value": 66.7, "unit": "%"},
      {"measurement": "Fibrosis (Ishak Score) 4, share of animals", "setting": "[3]; HFD rabbits", "value": 0.0, "unit": "%"},
      {"measurement": "Fibrosis (Ishak Score) 5, share of animals", "setting": "[3]; HFD rabbits", "value": 0.0, "unit": "%"},
      {"measurement": "Inflammation score 0 (no foci), share of animals", "setting": "[3]; HFD rabbits", "value": 100.0, "unit": "%"},
      {"measurement": "Inflammation score 1 (<2 foci), share of animals", "setting": "[3]; HFD rabbits", "value": 0.0, "unit": "%"},
      {"measurement": "Inflammation score 2 (2–4 foci), share of animals", "setting": "[3]; HFD rabbits", "value": 0.0, "unit": "%"},
      {"measurement": "Inflammation score 3 (> 4 foci), share of animals", "setting": "[3]; HFD rabbits", "value": 0.0, "unit": "%"},
      {"measurement": "Picrosirius Red percentage of fibrosis area", "setting": "[3]; [4]", "value": "significantly reduced fibrosis to RD levels"},
      {"measurement": "SHG percentage of fibrosis area", "setting": "[3]; [4]", "value": "normalized"},
      {"measurement": "Ballooning score 0 (no ballooning), share of animals", "setting": "[3]; RD rabbits", "value": 100.0, "unit": "%"},
      {"measurement": "Ballooning score 1 (few ballooned cells), share of animals", "setting": "[3]; RD rabbits", "value": 0.0, "unit": "%"},
      {"measurement": "Ballooning score 2 (prominent ballooning), share of animals", "setting": "[3]; RD rabbits", "value": 0.0, "unit": "%"},
      {"measurement": "Fibrosis (Ishak Score) 0, share of animals", "setting": "[3]; RD rabbits", "value": 0.0, "unit": "%"},
      {"measurement": "Fibrosis (Ishak Score) 1, share of animals", "setting": "[3]; RD rabbits", "value": 0.0, "unit": "%"},
      {"measurement": "Fibrosis (Ishak Score) 2, share of animals", "setting": "[3]; RD rabbits", "value": 33.3, "unit": "%"},
      {"measurement": "Fibrosis (Ishak Score) 3, share of animals", "setting": "[3]; RD rabbits", "value": 66.7, "unit": "%"},
      {"measurement": "Fibrosis (Ishak Score) 4, share of animals", "setting": "[3]; RD rabbits", "value": 0.0, "unit": "%"},
      {"measurement": "Fibrosis (Ishak Score) 5, share of animals", "setting": "[3]; RD rabbits", "value": 0.0, "unit": "%"},
      {"measurement": "Inflammation score 0 (no foci), share of animals", "setting": "[3]; RD rabbits", "value": 66.7, "unit": "%"},
      {"measurement": "Inflammation score 1 (<2 foci), share of animals", "setting": "[3]; RD rabbits", "value": 33.3, "unit": "%"},
      {"measurement": "Inflammation score 2 (2–4 foci), share of animals", "setting": "[3]; RD rabbits", "value": 0.0, "unit": "%"},
      {"measurement": "Inflammation score 3 (> 4 foci), share of animals", "setting": "[3]; RD rabbits", "value": 0.0, "unit": "%"}
    ]}
  ]
}
